Measurements from US11357745B2, “Methods and materials for treating cytokine release syndrome” (Mayo Foundation for Medical Education and Research, priority 2018, dated 2022).

Tests used:
[1] = tested on: human myeloma cell lines (HMCLs); experiment: MTT assay across 10 human myeloma cell lines, compared with receptor surface expression by flow cytometry; assay type: cell-based
Source text: Surface expression of IL-6Rα, IL-6ST and CD44 was quantified using IL-6Rα-PE (clone UV4, Biolegend), IL-6ST-APC (2E1B02, Biolegend) and CD44-BV711 (IM7, Biolegend), and compared to isotype or unstained control.

[2] = tested on: RPMI; experiment: MTT assay, metformin in RPMI myeloma cells; assay type: cell-based; conditions: Homo sapiens, 72 hours, Compusyn, read-out: metformin required to achieve 50% cell death/growth inhibition (IC50)
Method: (§1) Data is presented as heat map intensity corresponding to the level of expression. (B) HMCLs were treated with different doses of metformin for 72 hours and relative proliferation compared to vehicle control was calculated using MTT assay. Data is presented as IC50 for different cell lines and IC50 was calculated using Compusyn software (n=6). (C) & (D) HMCLs MM1S, RPMI, and U266 were treated with vehicle control (DMSO) or metformin 10 mM for 72 hours. (C) For apoptosis assay, cells were suspended in Annexin V buffer and stained with Annexin V for 30 minutes. Propidium iodide was added 10 minutes prior to data acquisition by flow cytometry. (D) For cell cycle assay, BrdU was added and incubated for 4 hours. Cells were fixed, permeabilized and stained with Anti-BrdU antibody for 30 minutes. 7AAD was added 10 minutes to samples before data acquisition by flow cytometry. The data were acquired on BD Fortessa and analyzed with flowjo V10.
(§2) IC50 was calculated using Compusyn software.

[3] = tested on: KMS12PE; experiment: MTT assay, metformin in KMS12PE myeloma cells; assay type: cell-based; conditions: Homo sapiens, KMS-12-PE, 72 hours, Compusyn, read-out: metformin required to achieve 50% cell death/growth inhibition (IC50)
Method: as §1, §2

[4] = tested on: JJN3; experiment: MTT assay, metformin in JJN3 myeloma cells; assay type: cell-based; conditions: Homo sapiens, JJN-3, JJN3, 72 hours, Compusyn, read-out: metformin required for 50% cell death/growth inhibition (IC50)
Method: as §1, §2

[5] = tested on: ALMC1 and ALMC2; experiment: MTT assay in primary amyloidosis (AL) cell lines; assay type: cell-based; conditions: ALMC2 high, ALMC1 low IL-6Rα expresser
Method: (3-(4,5-Dimethylthiazol-2-5-Diphenyltetrazolium Bromide (MTT) (Thermo Fisher Scientific, MA, USA) was dissolved in PBS to make 12 mM stock solution. Cells were seeded at 10,000 cells in 50 μl complete medium. Drugs, cytokines and antibodies were added at indicated doses in 50 μl complete medium. Cells were incubated for 72 hours for HMCLs and 48 hours for primary myeloma cells in presence of vehicle control, or metformin (1 mM, 5 mM, 10 mM, 20 mM, 40 mM, and 80 mM). MTT (10 μl) was added to each well and incubated for an additional 2 hours. Lysis buffer (100 μl) was added to each well and absorbance was read at 570 nm.

[6] = tested on: RPMI; experiment: Annexin V / propidium iodide apoptosis assay, RPMI; assay type: cell-based, human; conditions: metformin 10 mM, 72 hours, Annexin V/PI
Method: as §1, with “Cells were fixed, permeabilized and stained with Anti-BrdU antibody for 30 minutes. 7AAD was added 10 minutes to samples before data acquisition by flow cytometry.” left out
(§3) Cell surface expression of IL-6Rα, IL-6ST, and CD44 was quantified using the fluorescently labeled antibodies anti-IL6R-PE (UV4, Biolegend), anti-IL6ST-APC (2E1B02, Biolegend) and anti-CD44-BV711 (IM7, Biolegend), and compared with isotype control. BrdU labeling assay (Phase-Flow™, Biolegend) was performed according to the manufacturer's protocol to quantify cell cycle. […] For apoptosis assay, the cells were treated with metformin for 72 hours and quantified with Annexin V (Biolegend). […] The data were analyzed using flowJo vs10.4.2 (Flowjo LLC, USA). […]

[7] = tested on: U266; experiment: Annexin V / propidium iodide apoptosis assay, U266; assay type: cell-based, human; conditions: U266, metformin 10 mM, 72 hours, Annexin V/PI
Method: as §1, with “Cells were fixed, permeabilized and stained with Anti-BrdU antibody for 30 minutes. 7AAD was added 10 minutes to samples before data acquisition by flow cytometry.” left out
as §3

[8] = tested on: MM1S; experiment: Annexin V / propidium iodide apoptosis assay, MM1S; assay type: cell-based, human; conditions: metformin 10 mM, 72 hours, Annexin V/PI
Method: as §1, with “Cells were fixed, permeabilized and stained with Anti-BrdU antibody for 30 minutes. 7AAD was added 10 minutes to samples before data acquisition by flow cytometry.” left out
as §3

[9] = tested on: RPMI; experiment: BrdU cell cycle assay, RPMI; assay type: cell-based, human; conditions: metformin 10 mM, 72 hours, from 53% without metformin
Method: as §1, with “Cells were fixed, permeabilized and stained with Anti-BrdU antibody for 30 minutes. 7AAD was added 10 minutes to samples before data acquisition by flow cytometry.” left out
as §3

[10] = tested on: U266; experiment: BrdU cell cycle assay, U266; assay type: cell-based, human; conditions: U266, metformin 10 mM, 72 hours, from 35% without metformin
Method: as §1, with “Cells were fixed, permeabilized and stained with Anti-BrdU antibody for 30 minutes. 7AAD was added 10 minutes to samples before data acquisition by flow cytometry.” left out
as §3

[11] = tested on: MM1S; experiment: BrdU cell cycle assay, MM1S; assay type: cell-based, human; conditions: metformin 10 mM, 72 hours, from 34% without metformin
Method: as §1, with “Cells were fixed, permeabilized and stained with Anti-BrdU antibody for 30 minutes. 7AAD was added 10 minutes to samples before data acquisition by flow cytometry.” left out
as §3

[12] = tested on: RPMI IL-6Rα knock-downs; experiment: MTT assay in RPMI IL-6Rα knock-down cells; assay type: cell-based, human; conditions: n=6
Method: as §2
pGFP-C-shLenti vectors (4 shRNA targeting IL-6Rα and 1 scramble control) were purchased from Origene. Lentiviral particles were generated in HEK293T cells using pMD2.G (Addgene) and psPAX2 (Addgene). HMCLs were transduced with lentiviral vector particles in the presence of Polybrene (Millipore). Stable cell lines were generated after selecting for GFP positive cells with flow sorting and treatment with puromycin. Decreased expression of IL-6Rα compared to scrambled control was confirmed with qPCR and flow cytometer.

[13] = tested on: JJN3 engineered to over-express IL-6Rα; experiment: MTT assay in JJN3 cells over-expressing IL-6Rα; assay type: cell-based, human; conditions: n=6
Method: Ten different HMCLs were treated with metformin (0, 1 mM, 5 mM, 10 mM, 20 mM, 40 mM, and 80 mM) for 72 hours. The total numbers of live cells (metabolically active) were estimated using MTT assay. Relative proliferation was calculated by normalizing absorbance value with that obtained for vehicle control. IC50 was calculated using Compusyn software. […] (D) JJN3 IL-6Rα over-expressing cells were created using IL-6R cDNA expressing vector. Increased expression of IL-6Rα was confirmed by flow cytometry. (E) The sensitivity to metformin (IC50) was calculated using the MTT assay for cells transduced with the shRNA scrambled control or IL-6Rα KDs (n=6). […] (F) Metformin IC50 was calculated using MTT assay for JJN3 control and IL-6Rα over-expresser (n=6).
(3-(4,5-Dimethylthiazol-2-5-Diphenyltetrazolium Bromide (MTT) (ThermoFisher Scientific, MA, USA) was dissolved in PBS to make 12 mM stock solution. Cells were seeded at 10,000 cells in 50 μL complete medium. Drugs, cytokines and antibodies were added at indicated doses in 50 μL complete medium. HMCLs were incubated for 72 hours while primary myeloma cells were incubated for 48 hours in presence of vehicle control, metformin (1 mM, 5 mM, 10 mM, 20 mM, 40 mM and 80 mM). MTT (10 μL) was added to each well and incubated for an additional 2 hours. Lysis buffer (100 μL) was added to each well and absorbance was read at 570 nm. […]

[14] = tested on: IL-6Rα; experiment: Flow cytometry, cell surface IL-6Rα in HMCLs; assay type: cell-based, human; conditions: RPMI, ANBL6, U266, MM1S, JJN3; metformin 10 mM, 72 hours
Method: (§4) RPMI, ANBL6, U266, MM1S, and JJN3 were treated with metformin 10 mM for 72 hours and median fluorescence intensity for cell surface expression of (A) IL-6Rα, (B) IL-6-Rβ and (C) CD44 was quantified using flow cytometry. Vehicle (open bar) and metformin 10 mM (shaded bar), n=3. (D) RPMI and ANBL6 cells were cultured either in the presence of vehicle control or metformin 10 mM for 72 hours. Soluble IL-6Rα was quantified in media supernatant using ELISA kit. Vehicle (open bar) and metformin 10 mM (shaded bar), n=6. […] (E) RPMI and ANBL6 cells were cultured either in presence of vehicle control or metformin 10 mM for 72 hours. mRNA expression of IL-6Rα was quantified using qPCR TaqMan assay. Vehicle (open bar) and metformin 10 mM (shaded bar), n=6.
(§5) Surface expression of IL-6Rα, IL-6ST and CD44 was quantified using IL-6Rα-PE (clone UV4, Biolegend), IL-6ST-APC (2E1B02, Biolegend) and CD44-BV711 (IM7, Biolegend), and compared to isotype or unstained control. BrdU labelling assay (Phase-Flow™, Biolegend) was performed according to the manufacturer's protocol to quantify cell cycle fractions. After treatment cells were labelled with BrdU for 2 hours. For apoptosis assay, cells were treated with metformin for 72 hours and quantified with Annexin V (Biolegend). All assays were quantified on LSR Fortessa.

[15] = tested on: CD44; experiment: Flow cytometry, cell surface CD44 in HMCLs; assay type: cell-based, human; conditions: RPMI, ANBL6, U266, MM1S, JJN3; metformin 10 mM, 72 hours
Method: as §4, §5

[16] = tested on: soluble IL-6Rα; conditions: RPMI and ANBL6, metformin 10 mM, 72 hours, ELISA
Method: as §4

[17] = tested on: IL-6Rα mRNA; experiment: IL-6Rα mRNA, qPCR TaqMan assay; assay type: cell-based, human; conditions: RPMI and ANBL6, metformin 10 mM, 72 hours
Method: as §4

[18] = tested on: IL-6Rα; experiment: Flow cytometry, cell surface IL-6Rα on primary myeloma cells; assay type: cell-based, human; conditions: metformin 10 mM, 48 hours, n=11
Method: as §5

[19] = tested on: IL-6Rα; experiment: Flow cytometry, IL-6Rα on Hep3B hepatocytes; assay type: cell-based, human; conditions: metformin 10 mM, 72 hours
Method: Human hepatocellular carcinoma cell line Hep3B was purchased from ATCC. Cells were maintained in DMEM supplemented with 10% FBS and 100 U/mL penicillin and 100 μg/mL streptomycin.
as §5, with “Fortessa. Data were analyzed using flowJo vs10.4.2 (Flowjo LLC, USA).” for “Fortessa.”

[20] = tested on: IL-6 induced CRP production from hepatocytes (Hep3B); conditions: metformin 10 mM pre-treatment 72 hours, IL-6 50 ng/ml, 48 hours
[21] = tested on: primary myeloma cells; experiment: MTT assay in primary myeloma cells (CD138+ enriched); conditions: metformin 10 mM, 48 hours
Method: (A) Bone marrow aspirates were enriched for multiple myeloma cells by with magnetic associated cell sorting using CD138^+ (a marker for myeloma cells). Cells were treated with metformin 10 mM or vehicle control. After 48 hours of culture, the MTT assay was performed to determine the percentage of live cells. Data is presented as relative proliferation compared to vehicle control (n=6 per sample).
CD138^+ cells from bone marrow aspirates were enriched using magnetic associated cell sorting at the Hematology Research Core (Mayo Clinic Rochester, USA). Primary myeloma cells were maintained in RPMI supplemented with 10% FBS, antibiotics and 1 ng/mL IL-6.
(3-(4,5-Dimethylthiazol-2-5-Diphenyltetrazolium Bromide (MTT) (ThermoFisher Scientific, MA, USA) was dissolved in PBS to make 12 mM stock solution. Cells were seeded at 10,000 cells in 50 μL complete medium. Drugs, cytokines and antibodies were added at indicated doses in 50 μL complete medium. HMCLs were incubated for 72 hours while primary myeloma cells were incubated for 48 hours in presence of vehicle control, metformin (1 mM, 5 mM, 10 mM, 20 mM, 40 mM and 80 mM). MTT (10 μL) was added to each well and incubated for an additional 2 hours. Lysis buffer (100 μL) was added to each well and absorbance was read at 570 nm. […] IC50 was calculated using Compusyn software.

SMILES: [H]/N=C(/N)N/C(=N/[H])NCCc1ccccc1 [Phenformin]
- Phenformin IC50 versus IL-6Rα expression ([1]; MTT IC50 vs flow cytometry): strongly negatively correlated

SMILES: CN(C)C(=N)N=C(N)N [metformin]
- IC50 [2]: < 10 mM
- IC50 [3]: < 10 mM
- IC50 [4]: > 30 mM
- Metformin IC50, ALMC2 compared to ALMC1 [5]: lower for ALMC2 compared to ALMC1
- survival/growth of multiple myeloma cells ([1]; 72 hours, MTT, variable levels of efficacy): inhibited survival/growth
- percentage of live cells after metformin treatment [6]: 59%
- percentage of live cells after metformin treatment [7]: 67%
- percentage of live cells after metformin treatment [8]: 76%
- S phase fraction after metformin treatment [9]: 29%
- S phase fraction after metformin treatment [10]: 20%
- S phase fraction after metformin treatment [11]: 23%
- IC50 for metformin in RPMI IL-6Rα knock-downs compared to scramble control [12]: significantly increased
- IC50 for metformin in JJN3 over-expressing IL-6Rα compared to wild type JJN3 [13]: significantly decreased
- cell surface expression of IL-6Rα [14]: significantly and consistently reduced
- CD44 expression [15]: no significant change
- soluble IL-6Rα in media [16]: decrease
- IL-6Rα mRNA level (transcription) [17]: decreased the level of IL-6Rα transcription
- cell surface expression of IL-6Rα on primary myeloma cells [18]: decreased cell surface expression of IL-6Rα
- IL-6Rα expression on hepatocytes [19]: expression of the receptor decreased
- IL-6 induced CRP production from hepatocytes [20]: significantly inhibited
- survival/proliferation of primary myeloma cells [21]: decreased survival/proliferation
